In ChEMBL document CHEMBL1201862, “PubChem BioAssay data set” (2004):
Activity calls are given as the source filed them. No stated cut-off is given here; in the data, actives have a measured IC50 and inactives only a lower limit.

Assays:
Format in all cases: functional
[1] = molecular target: T1, Sentrin-specific protease 7 (Homo sapiens, UniProt Q9BQF6);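 further: Luminescence-based dose-response confirmation of ultra-high-throughput screening hits, measuring inhibition of SENP7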
T1 sequence (Q9BQF6 whole entry): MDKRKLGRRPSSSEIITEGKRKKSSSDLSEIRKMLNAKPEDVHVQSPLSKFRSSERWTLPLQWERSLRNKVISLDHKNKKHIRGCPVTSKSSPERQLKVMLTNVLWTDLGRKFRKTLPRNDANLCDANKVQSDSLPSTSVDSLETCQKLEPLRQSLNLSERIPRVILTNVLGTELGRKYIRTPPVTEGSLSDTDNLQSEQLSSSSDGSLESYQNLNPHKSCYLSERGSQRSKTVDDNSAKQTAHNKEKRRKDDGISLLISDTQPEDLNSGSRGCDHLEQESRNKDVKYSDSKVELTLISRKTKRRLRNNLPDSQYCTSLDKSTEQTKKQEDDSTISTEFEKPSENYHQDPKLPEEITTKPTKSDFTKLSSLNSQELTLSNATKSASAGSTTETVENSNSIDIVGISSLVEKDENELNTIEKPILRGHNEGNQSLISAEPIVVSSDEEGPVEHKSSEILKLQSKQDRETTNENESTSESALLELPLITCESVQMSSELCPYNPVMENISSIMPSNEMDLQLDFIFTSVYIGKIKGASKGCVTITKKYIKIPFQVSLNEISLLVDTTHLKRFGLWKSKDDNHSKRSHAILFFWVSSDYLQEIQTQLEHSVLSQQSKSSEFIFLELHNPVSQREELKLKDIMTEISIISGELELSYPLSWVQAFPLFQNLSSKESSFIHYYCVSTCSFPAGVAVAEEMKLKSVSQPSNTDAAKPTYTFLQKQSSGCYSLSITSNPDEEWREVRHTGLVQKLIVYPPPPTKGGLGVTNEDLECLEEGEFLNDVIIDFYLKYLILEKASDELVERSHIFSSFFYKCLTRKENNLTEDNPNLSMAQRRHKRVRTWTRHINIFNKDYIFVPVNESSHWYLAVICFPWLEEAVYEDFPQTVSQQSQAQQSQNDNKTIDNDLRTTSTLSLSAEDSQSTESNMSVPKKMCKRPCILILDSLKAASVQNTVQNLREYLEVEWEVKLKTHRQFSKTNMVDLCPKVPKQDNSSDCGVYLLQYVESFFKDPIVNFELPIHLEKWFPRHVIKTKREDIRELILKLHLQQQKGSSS

[2] = molecular target: T2, Sentrin-specific protease 6 (Homo sapiens, UniProt Q9GZR1);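 further: Luminescence-based dose-response confirmatory assay of SENP6 inhibition, following up an ultra-high-throughput screen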
T2 sequence (Q9GZR1 whole entry): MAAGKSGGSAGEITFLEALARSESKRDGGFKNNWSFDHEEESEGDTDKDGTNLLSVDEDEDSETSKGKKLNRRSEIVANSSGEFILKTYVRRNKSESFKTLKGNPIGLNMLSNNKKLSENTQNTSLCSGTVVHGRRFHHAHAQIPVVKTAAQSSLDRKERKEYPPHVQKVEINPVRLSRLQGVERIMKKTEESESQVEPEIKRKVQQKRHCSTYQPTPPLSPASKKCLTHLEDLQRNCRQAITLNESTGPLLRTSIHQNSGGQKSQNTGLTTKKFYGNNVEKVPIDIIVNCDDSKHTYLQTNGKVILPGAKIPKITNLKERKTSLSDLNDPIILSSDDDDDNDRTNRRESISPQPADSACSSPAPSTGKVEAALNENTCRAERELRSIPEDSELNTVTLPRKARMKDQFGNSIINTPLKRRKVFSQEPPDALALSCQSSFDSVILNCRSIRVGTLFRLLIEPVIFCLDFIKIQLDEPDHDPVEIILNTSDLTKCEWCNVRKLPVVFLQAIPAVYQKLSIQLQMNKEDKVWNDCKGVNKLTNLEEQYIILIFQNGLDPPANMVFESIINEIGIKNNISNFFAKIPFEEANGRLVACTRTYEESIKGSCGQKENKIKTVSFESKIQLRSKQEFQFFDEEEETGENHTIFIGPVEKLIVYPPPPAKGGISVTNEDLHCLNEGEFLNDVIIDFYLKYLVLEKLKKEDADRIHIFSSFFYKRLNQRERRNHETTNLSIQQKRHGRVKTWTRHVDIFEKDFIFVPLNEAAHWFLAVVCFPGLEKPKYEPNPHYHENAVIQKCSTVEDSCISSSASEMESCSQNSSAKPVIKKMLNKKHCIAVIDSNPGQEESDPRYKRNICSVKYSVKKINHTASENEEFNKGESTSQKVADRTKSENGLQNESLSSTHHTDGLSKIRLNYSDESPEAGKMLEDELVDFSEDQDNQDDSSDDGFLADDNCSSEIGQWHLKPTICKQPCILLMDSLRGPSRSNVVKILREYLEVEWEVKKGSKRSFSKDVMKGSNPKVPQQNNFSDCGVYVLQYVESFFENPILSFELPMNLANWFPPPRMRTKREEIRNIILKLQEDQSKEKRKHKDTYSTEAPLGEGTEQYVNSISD

[3] = molecular target: T3, Sentrin-specific protease 8 (Homo sapiens, UniProt Q96LD8);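 further: luminescence read-out of SENP8 inhibition, dose-response confirmation following an ultra-high-throughput screen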
T3 sequence (Q96LD8 whole entry): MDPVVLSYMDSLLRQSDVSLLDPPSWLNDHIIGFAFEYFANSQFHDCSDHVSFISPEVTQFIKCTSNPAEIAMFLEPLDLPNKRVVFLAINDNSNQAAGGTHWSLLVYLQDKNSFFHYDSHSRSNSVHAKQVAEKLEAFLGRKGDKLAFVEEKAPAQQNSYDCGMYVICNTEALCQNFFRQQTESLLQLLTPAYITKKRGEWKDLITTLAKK

Caspase-3 = molecular target: T4, Caspase-3 (Homo sapiens, UniProt P42574);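 further: Dose-response selectivity test against caspase-3 for candidate inhibitors of sentrin-specific proteases (SENPs)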
T4 sequence (P42574 whole entry): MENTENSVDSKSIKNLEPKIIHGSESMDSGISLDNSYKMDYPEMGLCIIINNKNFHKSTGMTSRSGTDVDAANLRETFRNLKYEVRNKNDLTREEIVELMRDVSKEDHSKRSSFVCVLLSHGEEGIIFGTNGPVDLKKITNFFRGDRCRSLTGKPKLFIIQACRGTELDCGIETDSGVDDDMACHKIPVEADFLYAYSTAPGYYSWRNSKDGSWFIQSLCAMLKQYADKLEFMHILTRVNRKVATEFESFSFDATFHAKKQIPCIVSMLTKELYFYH

Measured: IC50

O=c1oc2c(O)cccc2cc1-c1nc2ccccc2[nH]1
active: [1] 955 nM | [2] 1260 nM | [3] 2650 nM | Caspase-3 950 nM

C=CCn1c(NC(=O)c2ccccc2Cl)c(C#N)c2nc3ccccc3nc21
active: [1] 3080 nM | [2] < 1550 nM | [3] < 1550 nM | Caspase-3 5600 nM

CCOC(=O)c1ccc(Nc2cc3ccccc3c(O)n2)cc1
active: [1] 10100 nM | [2] 6630 nM | [3] 13600 nM | Caspase-3 8270 nM
